Measurements reported in PMC12282092, “Discovery of a non-nucleoside inhibitor that binds to a novel site in the palm domain of the respiratory syncytial virus RNA-dependent RNA polymerase” (Journal of Virology, 2025).
pEC50, pIC50: −log10 of the molar value.

Assays:
[1] = target: human mitochondrial RNA polymerase (POLRMT) (Homo sapiens, UniProt O00411); test: POLRMT assay
[2] = HeLa cytotoxicity assay (ATPlite); conditions: human; for CC50 at 72 h: HeLa cells
Experimental: (§1) Compound serial dilutions (9 point, fourfold) were prepared in DMSO, and 200 nL was transferred to black, 384-well, clear-bottom microtiter plates (Corning, Amsterdam, The Netherlands) via acoustic drop ejection ([36], [50]). […] Then, 20 µL of a HeLa cell suspension (3,000 cells/well) was added with a Multidrop Combi, and cells were incubated at 37°C in a 5% CO2 atmosphere. After 72 h, GFP expression was quantified using an EnVision Multimode Plate Reader (Perkin Elmer, Zaventem, Belgium), and data were normalized to untreated and media-only (no virus) controls. Cytotoxicity was determined in parallel using the ATPlite kit (Perkin Elmer, Zaventem, Belgium). Luminescence was measured in white, 384-well microtiter plates (Corning) on a ViewLux uHTS Microplate Imager apparatus (PerkinElmer, Zaventem, Belgium), and cellular ATP content was quantified by normalizing to untreated and media-only (no cell) controls. […] Figures were prepared with GraphPad Prism.

[3] = system: HeLa cells; test: HeLa cytotoxicity assay (ATPlite); conditions: HeLa cells
Experimental: as §1

[4] = Metabolic stability in liver microsomes; conditions: in vitro intrinsic clearance in human liver microsomes, n = 1
[5] = target: coupled enzyme system (ATP sulfurylase, luciferase); test: Pyrophosphate detection counterscreen; assay type: biochemical; conditions: read-out: PPi counterscreen IC50
Experimental: To determine if compounds were interfering with the sulfurylase or luciferase in the pyrophosphate luminescence detection assay, a counterscreen was developed to monitor activity of the coupling system. Working solutions (3×) of substrate and detection reagents were prepared as before and added to 1536-well white, COC plates containing compound titrations. Then, 1 µL of a 3× solution of 4.5 µM sodium pyrophosphate (Sigma, P8010) was dispensed with the Multidrop Combi to initiate the reaction. […] Luminescence was detected using the PHERAStar FSX. […] Figures were prepared with GraphPad Prism.

[6] = target: T1, RSV L+P (Human respiratory syncytial virus A, UniProt P28887); test: Pyrophosphate luminescence detection assay, full-length RSV L+P; assay type: biochemical; conditions: for Emax: read-out: Biochemical Emax; for pIC50: read-out: Biochemical IC50
T1 construct: Biochemical activity of 1 and 22 against full-length RSV L+P; Twin-Strep-tag (N); made in house; host or cells: Sf9 insect cells (baculovirus, pFastBac Dual)
Experimental: Working solutions (3×) of RSV L+P (60 nM), substrate (30 µM each of GTP, CTP, UTP, 300 µM ATPαS [Jena Bioscience], 15 µM RNA template TrC-25), detection reagents (6 nM Luciferase, 900 µM luciferin, 3 U/µL ATP Sulfurylase [BioVision], 15 µM adenosine phosphosulfate [APS], 3 mM coenzyme A), were prepared in complete assay buffer. Compounds were dissolved in dimethyl sulfoxide (DMSO) and dispensed to white, 1536-well cyclic olefin copolymer (COC) plates (Corning, 9145BC) using an Echo Acoustic Liquid Handler (Beckman Coulter, San Jose, CA). Substrate (1 µL) and detection reagents (1 µL) were dispensed using a Multidrop Combi Dispenser (ThermoFisher, Waltham, MA), followed by enzyme (1 µL) to initiate the reaction. Final screening concentrations were 20 nM RSV L+P, 10 µM GTP/CTP/UTP, 100 µM ATPαS, 5 µM TrC-25, 2 nM Luciferase (Promega), 300 µM luciferin (Promega), 1 U/µL ATP sulfurylase, 5 µM APS, and 1 mM CoA. […] Luminescence was detected using the PHERAStar FSX (BMG Labtech, Ortenberg, Germany).

[7] = system: rgRSV224 virus (RSV A2) in HeLa cells; test: HeLa cell rgRSV224 eGFP reporter viral proliferation assay; assay type: cell-based; conditions: human respiratory syncytial virus, RSV eGFP phenotypic assay in HeLa cells; for pEC50: HeLa, 72 h, MOI 1, 72 h, n ≥ 2, read-out: Cellular EC50; for Emax: read-out: Cellular Emax
Experimental: as §1

[8] = target: Full-length RSV P (1-241) protein (human RSV); test: cryo-EM structure; full-length RSV L+P complex with compound 22; 0.8 mg/mL on grids; global resolution 2.72 Å
[9] = pyrophosphate luminescence detection assay
[10] = pyrophosphate luminescence detection assay, full-length RSV L+P, n ≥ 2

T1 sequence (P03421 whole entry): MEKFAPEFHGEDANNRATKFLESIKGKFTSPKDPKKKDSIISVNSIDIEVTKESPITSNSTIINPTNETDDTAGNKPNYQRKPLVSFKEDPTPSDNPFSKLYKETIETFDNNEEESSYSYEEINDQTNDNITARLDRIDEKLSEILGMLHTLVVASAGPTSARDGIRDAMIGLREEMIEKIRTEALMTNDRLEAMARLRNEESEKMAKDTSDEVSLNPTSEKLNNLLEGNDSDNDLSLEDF
T1 sequence (P28887 whole entry): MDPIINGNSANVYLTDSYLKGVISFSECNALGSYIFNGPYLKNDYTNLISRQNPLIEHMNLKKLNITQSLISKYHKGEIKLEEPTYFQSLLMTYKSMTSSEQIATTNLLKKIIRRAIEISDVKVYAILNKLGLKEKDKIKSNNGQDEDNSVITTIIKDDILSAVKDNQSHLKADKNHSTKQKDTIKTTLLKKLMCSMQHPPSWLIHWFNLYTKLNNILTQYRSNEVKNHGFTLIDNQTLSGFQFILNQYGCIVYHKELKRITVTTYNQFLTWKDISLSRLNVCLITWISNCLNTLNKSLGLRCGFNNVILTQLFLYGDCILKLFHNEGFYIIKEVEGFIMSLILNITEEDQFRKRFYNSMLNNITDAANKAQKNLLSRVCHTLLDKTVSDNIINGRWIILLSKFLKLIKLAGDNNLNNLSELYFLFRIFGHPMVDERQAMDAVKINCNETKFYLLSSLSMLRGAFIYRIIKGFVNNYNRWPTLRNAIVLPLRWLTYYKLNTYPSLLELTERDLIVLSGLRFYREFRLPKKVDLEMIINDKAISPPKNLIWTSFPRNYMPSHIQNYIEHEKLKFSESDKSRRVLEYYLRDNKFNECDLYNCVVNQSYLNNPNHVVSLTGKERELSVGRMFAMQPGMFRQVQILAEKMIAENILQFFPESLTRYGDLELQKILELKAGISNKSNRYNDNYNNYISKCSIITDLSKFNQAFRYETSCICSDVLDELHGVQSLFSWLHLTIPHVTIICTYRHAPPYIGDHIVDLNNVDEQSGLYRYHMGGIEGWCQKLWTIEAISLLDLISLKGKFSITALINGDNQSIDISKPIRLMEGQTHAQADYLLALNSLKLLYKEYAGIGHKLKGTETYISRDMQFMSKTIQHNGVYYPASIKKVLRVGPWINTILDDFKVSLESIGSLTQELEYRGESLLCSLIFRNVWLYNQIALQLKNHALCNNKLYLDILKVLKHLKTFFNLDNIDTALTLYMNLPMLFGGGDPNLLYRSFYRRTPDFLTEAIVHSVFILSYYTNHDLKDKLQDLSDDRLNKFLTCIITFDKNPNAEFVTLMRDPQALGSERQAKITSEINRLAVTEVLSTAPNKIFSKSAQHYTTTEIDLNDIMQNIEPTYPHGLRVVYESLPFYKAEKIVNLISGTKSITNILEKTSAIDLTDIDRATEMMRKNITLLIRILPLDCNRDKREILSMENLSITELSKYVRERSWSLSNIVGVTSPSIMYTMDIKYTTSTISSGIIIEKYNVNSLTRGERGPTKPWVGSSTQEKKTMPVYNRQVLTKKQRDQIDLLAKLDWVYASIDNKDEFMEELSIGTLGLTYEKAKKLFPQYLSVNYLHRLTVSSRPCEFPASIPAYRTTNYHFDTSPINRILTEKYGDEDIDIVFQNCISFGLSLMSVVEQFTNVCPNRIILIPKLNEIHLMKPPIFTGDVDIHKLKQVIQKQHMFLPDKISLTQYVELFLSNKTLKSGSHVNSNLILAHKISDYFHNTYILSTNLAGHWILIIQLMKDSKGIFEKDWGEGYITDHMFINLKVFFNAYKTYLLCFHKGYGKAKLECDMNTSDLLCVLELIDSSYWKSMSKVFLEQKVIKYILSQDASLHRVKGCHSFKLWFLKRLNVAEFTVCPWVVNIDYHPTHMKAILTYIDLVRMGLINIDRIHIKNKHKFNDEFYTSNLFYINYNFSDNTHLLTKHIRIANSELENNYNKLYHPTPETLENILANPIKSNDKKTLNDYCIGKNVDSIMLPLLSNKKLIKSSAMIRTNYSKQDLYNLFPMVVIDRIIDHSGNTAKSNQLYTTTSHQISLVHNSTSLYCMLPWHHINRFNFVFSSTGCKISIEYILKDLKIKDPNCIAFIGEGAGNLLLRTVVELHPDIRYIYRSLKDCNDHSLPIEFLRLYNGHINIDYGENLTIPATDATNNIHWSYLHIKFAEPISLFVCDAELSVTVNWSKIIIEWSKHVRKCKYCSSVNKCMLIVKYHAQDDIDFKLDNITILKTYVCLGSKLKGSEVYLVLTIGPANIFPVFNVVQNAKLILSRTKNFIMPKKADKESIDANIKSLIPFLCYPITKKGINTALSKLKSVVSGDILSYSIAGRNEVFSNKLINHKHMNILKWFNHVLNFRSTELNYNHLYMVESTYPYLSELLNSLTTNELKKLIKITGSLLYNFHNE
human mitochondrial RNA polymerase (POLRMT), sequence (O00411 103-1230): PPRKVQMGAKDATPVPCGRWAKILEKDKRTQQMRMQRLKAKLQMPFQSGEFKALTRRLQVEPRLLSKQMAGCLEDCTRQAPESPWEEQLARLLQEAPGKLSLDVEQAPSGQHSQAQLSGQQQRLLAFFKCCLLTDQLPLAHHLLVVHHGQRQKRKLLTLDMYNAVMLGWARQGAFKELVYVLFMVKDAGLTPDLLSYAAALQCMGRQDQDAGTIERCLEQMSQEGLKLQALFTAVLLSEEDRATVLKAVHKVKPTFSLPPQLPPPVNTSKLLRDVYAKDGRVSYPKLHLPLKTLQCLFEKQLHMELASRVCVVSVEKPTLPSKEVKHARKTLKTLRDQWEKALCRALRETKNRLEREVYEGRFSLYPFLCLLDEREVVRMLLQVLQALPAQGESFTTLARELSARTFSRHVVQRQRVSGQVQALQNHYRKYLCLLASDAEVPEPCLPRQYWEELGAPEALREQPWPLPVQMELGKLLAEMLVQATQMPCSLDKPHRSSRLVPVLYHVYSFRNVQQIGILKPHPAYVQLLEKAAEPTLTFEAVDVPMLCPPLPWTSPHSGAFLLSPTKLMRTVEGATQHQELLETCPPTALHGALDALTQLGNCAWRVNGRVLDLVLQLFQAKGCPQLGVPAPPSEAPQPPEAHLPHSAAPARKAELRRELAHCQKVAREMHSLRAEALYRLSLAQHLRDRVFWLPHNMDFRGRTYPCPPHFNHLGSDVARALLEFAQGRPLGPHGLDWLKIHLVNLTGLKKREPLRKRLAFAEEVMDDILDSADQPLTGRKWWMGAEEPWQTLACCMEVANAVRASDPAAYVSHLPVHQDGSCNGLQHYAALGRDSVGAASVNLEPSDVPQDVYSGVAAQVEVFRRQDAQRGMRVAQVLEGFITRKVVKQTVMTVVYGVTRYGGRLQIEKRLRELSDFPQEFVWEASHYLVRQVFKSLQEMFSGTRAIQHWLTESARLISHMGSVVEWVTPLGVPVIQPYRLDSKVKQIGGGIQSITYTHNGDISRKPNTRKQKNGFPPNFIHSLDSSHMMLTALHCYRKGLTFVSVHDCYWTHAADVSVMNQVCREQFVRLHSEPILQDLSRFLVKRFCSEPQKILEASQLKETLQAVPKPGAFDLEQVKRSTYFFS

Compound	pIC50 [1]	POLRMT IC50 ([1]; 8 nM POLRMT)	CC50 at 72 h [2]	Cytotoxicity Emax [3]	HLM CLint [4]	pIC50 [5]	Emax [6, 9]	pEC50 [7]	Emax [7]	pIC50 [6, 10]	loss in potency on replacing the bromo substituent with a proton ([6]; compared to 1)	CC50 [2]	Biochemical IC50 [6, 10]	stoichiometry N [8]
N#Cc1ncc(N2CCC3(CC2)C(=O)Nc2ccc(Br)cc23)cc1Cl [Compound 1, 5-(5-bromo-2-oxospiro[indoline-3,4'-piperidin]-1'-yl)-3-chloropicolinonitrile]	< 4.00	no activity	> 3.8 µM	63.1%	<7.7 µL/min/mg microsomal protein	< 4.00	110%	5.18	94.6%					
N#Cc1ncc(N2CCC3(CC2)C(=O)Nc2ccc(Cl)cc23)cc1Cl [Compound 16, 3-chloro-5-(5-chloro-2-oxospiro[indoline-3,4'-piperidin]-1'-yl)picolinonitrile]			> 13 µM	45.3%	<7.7 µL/min/mg microsomal protein		108%	5.09	94.2%	5.99				
Cc1ccc2c(c1)C1(CCN(c3cnc(C#N)c(Cl)c3)CC1)C(=O)N2 [Compound 17, 3-chloro-5-(5-methyl-2-oxospiro[indoline-3,4'-piperidin]-1'-yl)picolinonitrile]			> 50 µM	8.6%	123 µL/min/mg microsomal protein		111%	4.96	55.1%	5.76				
COc1ccc2c(c1)C1(CCN(c3cnc(C#N)c(Cl)c3)CC1)C(=O)N2 [Compound 18, 3-chloro-5-(5-methoxy-2-oxospiro[indoline-3,4'-piperidin]-1'-yl)picolinonitrile]			24.4 µM	82.4%			100%	4.80	96.8%	5.51				
N#Cc1ncc(N2CCC3(CC2)C(=O)Nc2ccc(F)cc23)cc1Cl [Compound 19, 3-chloro-5-(5-fluoro-2-oxospiro[indoline-3,4'-piperidin]-1'-yl)picolinonitrile]			> 50 µM	52.2%	19 µL/min/mg microsomal protein		106%	5.18	99.9%	5.57				
N#Cc1ncc(N2CCC3(CC2)C(=O)Nc2ccccc23)cc1Cl [Compound 20, 3-chloro-5-(2-oxospiro[indoline-3,4'-piperidin]-1'-yl)picolinonitrile]			> 3.8 µM	42.9%	19.7 µL/min/mg microsomal protein		84.7%	5.08	81.4%	5.18	10 fold			
N#Cc1ncc(N2CCC3(CC2)C(=O)N(c2cccnc2)c2ccc(F)cc23)cc1Cl [Compound 21, 3-chloro-5-(5-fluoro-2-oxo-1-(pyridin-3-yl)spiro[indoline-3,4'-piperidin]-1'-yl)picolinonitrile]			> 2.71 µM	44.8%			107%	5.47	95.8%	6.10				
CN1C(=O)C2(CCN(c3cnc(C#N)c(Cl)c3)CC2)c2cc(F)ccc21 [Compound 23, 3-chloro-5-(5-fluoro-1-methyl-2-oxospiro[indoline-3,4'-piperidin]-1'-yl)picolinonitrile]			> 3.74 µM	55.7%	19 µL/min/mg microsomal protein		103%	5.44	93.3%					
N#Cc1ncc(N2CCC3(CC2)C(=O)N(CC2CC2)c2ccc(F)cc23)cc1Cl [Compound 24, 3-chloro-5-(1-(cyclopropylmethyl)-5-fluoro-2-oxospiro[indoline-3,4'-piperidin]-1'-yl)picolinonitrile]			> 7.77 µM	51.8%	46.3 µL/min/mg microsomal protein		89.4%	5.06	78.3%					
N#Cc1ncc(N2CCC3(CC2)C(=O)N(CCF)c2ccc(F)cc23)cc1Cl [Compound 25, 3-chloro-5-(5-fluoro-1-(2-fluoroethyl)-2-oxospiro[indoline-3,4'-piperidin]-1'-yl)picolinonitrile]			> 23.4 µM	66.5%	14.1 µL/min/mg microsomal protein		90.7%	5.05	80.3%	5.54				
CN1C(=O)C2(CCN(c3ccc(C#N)c(Cl)n3)CC2)c2cc(F)ccc21 [Compound 29, 2-chloro-6-(5-fluoro-1-methyl-2-oxospiro[indoline-3,4'-piperidin]-1'-yl)nicotinonitrile]			> 8.43 µM	66.9%	31.9 µL/min/mg microsomal protein		95.5%	5.10	94.3%	5.81				
CN1C(=O)C2(CCN(c3ccc(C#N)c(Cl)c3)CC2)c2cc(F)ccc21 [Compound 30]				58.0%	39.1 µL/min/mg microsomal protein		100%	5.36	95.8%	5.90		> 6.65 µM		
COc1cc(N2CCC3(CC2)C(=O)N(C)c2ccc(F)cc23)cnc1C#N [Compound 31, 5-(5-fluoro-1-methyl-2-oxospiro[indoline-3,4'-piperidin]-1'-yl)-3-methoxypicolinonitrile]			> 22.7 µM	37.6%	20.5 µL/min/mg microsomal protein		115%	5.06	98.6%	5.53				
Cc1cc(N2CCC3(CC2)C(=O)N(C)c2ccc(F)cc23)cc(F)c1C#N [Compound 32, 2-fluoro-4-(5-fluoro-1-methyl-2-oxospiro[indoline-3,4'-piperidin]-1'-yl)-6-methylbenzonitrile]			> 5.78 µM	50.9%	64.8 µL/min/mg microsomal protein		91.2%	4.86	92.6%	5.72				
CN1C(=O)C2(CCN(c3cnc(N4CCOCC4)c(Cl)c3)CC2)c2cc(F)ccc21 [Compound 34, 1'-(5-chloro-6-morpholinopyridin-3-yl)-5-fluoro-1-methylspiro[indoline-3,4'-piperidin]-2-one]			> 50 µM	41.6%	126 µL/min/mg microsomal protein		69.5%	4.52	49.6%	< 4.52			inactive	
Full-length RSV P (1-241) protein (natural protein)														4
